{"source": "patent US11969419B2", "about": "“Method of treating cancer” (Exelixis, Inc., priority 2010, dated 2024)", "key": {"[1]": {"tested_on": "pancreatic neuroendocrine tumor model", "settings": "murine pancreatic neuroendocrine tumor model; cited from earlier work"}, "[2]": {"settings": "phase 1 clinical study; cited from earlier work"}, "tumor cells": {"tested_on": "tumor cells", "settings": "cited from earlier work"}, "xenograft tumor models": {"tested_on": "xenograft tumor models", "settings": "cited from earlier work"}, "[3]": {"tested_on": "castration-resistant prostate cancer (CRPC) with bone metastases", "assay": "Adaptive phase 2 trial (NCT00940225), case studies of the first three CRPC patients with bone metastases, Compound 1 100 mg", "type": "in vivo, human", "settings": "for Bone scan (best response) / Pain (best response): preliminary best response", "protocol": "In 2000, local disease recurrence was treated with radiation therapy. […] CAB with leuprolide and bicalutanide was initiated. […] All patients provided informed consent before study screening."}, "endothelial cells": {"tested_on": "endothelial cells", "settings": "cited from earlier work"}, "[4]": {"settings": "three metastatic CRPC patients, summary"}}, "data": [{"smiles": "COc1cc2nccc(Oc3ccc(NC(=O)C4(C(=O)Nc5ccc(F)cc5)CC4)cc3)c2cc1OC", "note": "[Compound 1, N-(4-{[6,7-bis(methyloxy)quinolin-4-yl]oxy}phenyl)-N′-(4-fluorophenyl)cyclopropane-1,1-dicarboxamide]", "values": [{"measurement": "Overall survival", "setting": "[1]", "result": "substantially improves"}, {"measurement": "Tumor invasiveness and metastasis", "setting": "[1]", "result": "significantly reduces"}, {"measurement": "Most commonly observed adverse events", "setting": "[2]", "result": "fatigue, diarrhea, anorexia, rash, and palmar-plantar erythrodysesthesia"}, {"measurement": "Tolerability", "setting": "[2]", "result": "generally well-tolerated"}, {"measurement": "Apoptosis of tumor cells", "setting": "tumor cells", "result": "rapidly induces apoptosis"}, {"measurement": "Tumor regression", "setting": "xenograft tumor models", "result": "causes tumor regression"}, {"measurement": "Bone scan: radiotracer uptake by bone metastases", "setting": "[3]; Patient 1, Week 6", "result": "dramatic decrease in radiotracer uptake"}, {"measurement": "CT scan response category", "setting": "[3]; Patient 1, Week 6", "result": "partial response (PR)"}, {"measurement": "CT scan: decrease in measurable target lesions", "setting": "[3]; Patient 1, Week 6", "result": 33, "unit": "%"}, {"measurement": "Bone lesions on bone scan", "setting": "[3]; Patient 1, Week 12, stable through Week 18", "result": "near complete resolution of bone lesions"}, {"measurement": "Adverse event leading to withdrawal", "setting": "[3]; Patient 1, Week 18", "result": "Grade 3 diarrhea"}, {"measurement": "Bone pain", "setting": "[3]; Patient 1, four weeks after start", "result": "significant reduction in bone pain"}, {"measurement": "Bone scan (best response)", "setting": "[3]; Patient 1", "result": "Complete resolution"}, {"measurement": "Pain (best response)", "setting": "[3]; Patient 1", "result": "Improvement"}, {"measurement": "Bone pain", "setting": "[3]; Patient 2, Week 4", "result": "reduction in bone pain"}, {"measurement": "Bone scan: radiotracer uptake by bone lesions", "setting": "[3]; Patient 2, Week 6", "result": "slight flair in radiotracer uptake"}, {"measurement": "CT scan: decrease in target lesions", "setting": "[3]; Patient 2, Week 6", "result": 13, "unit": "%"}, {"measurement": "Bone scan: radiotracer uptake", "setting": "[3]; Patient 2, Week 12", "result": "substantial reduction of radiotracer uptake"}, {"measurement": "Bone scan (best response)", "setting": "[3]; Patient 2", "result": "Improvement"}, {"measurement": "Pain (best response)", "setting": "[3]; Patient 2", "result": "Pain-free"}, {"measurement": "Bone scan: radiotracer uptake", "setting": "[3]; Patient 3, Week 6", "result": "dramatic reduction in radiotracer uptake"}, {"measurement": "CT scan: decrease in measurable target lesions", "setting": "[3]; Patient 3, Week 6", "result": 43, "unit": "%"}, {"measurement": "Bone lesions on bone scan", "setting": "[3]; Patient 3, Week 12", "result": "complete resolution of bone lesions"}, {"measurement": "Pain", "setting": "[3]; Patient 3, after three weeks", "result": "complete resolution of pain"}, {"measurement": "Bone scan (best response)", "setting": "[3]; Patient 3", "result": "Near resolution"}, {"measurement": "Pain (best response)", "setting": "[3]; Patient 3", "result": "Pain-free"}, {"measurement": "Bone pain", "setting": "[3]; all three patients, discussion", "result": "substantial reductions in bone pain"}, {"measurement": "Soft tissue lesions", "setting": "[3]; all three patients, discussion", "result": "response or stabilization"}, {"measurement": "Uptake of radiotracer on bone scan", "setting": "[3]; all three patients, discussion", "result": "striking decrease"}, {"measurement": "Bone lesions", "setting": "[3]; [4]", "result": "near complete resolution of bone lesions"}, {"measurement": "Bone pain", "setting": "[3]; [4]", "result": "marked reduction"}, {"measurement": "Measurable disease", "setting": "[3]; [4]", "result": "reduction in measurable disease"}, {"measurement": "Total serum alkaline phosphatase (tALP) levels", "setting": "[3]; [4]", "result": "marked reduction"}, {"measurement": "Apoptosis of endothelial cells", "setting": "endothelial cells", "result": "rapidly induces apoptosis"}]}]}
